The values that follow come from patent US7935672B2, “Derivatives of genkwanin and sakuranetin, cosmetic and therapeutic use thereof and preparation method of same” (priority 2004, dated 2011).

One series relates to lymphoblasts. The conditions noted are these: serious immune disorders; FR 2 510 580 A, FR 2 597 751 A, Lin et al. 2001; cited from earlier work.
A further series has as its system human blood cells. Kind of series: human blood cells, proliferation and expression of membrane markers (Tests H). The conditions noted are these: for proliferation of the blood cells of the immune response: 24 or 48 hours at 37° C. Type of series: cell-based.
A further series concerns IL-2. Kind of series: IL-2 content of cell supernatants after PHA or SEB stimulation (Tests H). The conditions noted are these: following stimulation with PHA or SEB; FIGS. 2 and 3.
The subject of a further series is leukoblasts. In words: antiblastic effect, activity against cancers and leukemias (method not described).
Series [1] in a line: side effects on topical, oral or injected administration (method not described). The conditions noted are these: administered topically, orally or by injection.

Take `COc1cc(O[C@@H]2O[C@H](CO[C@@H]3OC[C@@H](O)[C@H](O)[C@H]3O)[C@@H](O)[C@H](O)[C@H]2O)c2c(=O)cc(-c3ccc(O)cc3)oc2c1` [5-O-β-D-primeverosyl-genkwanin]: the “effect on lymphoblasts formed in hyperplasia” value in the series with lymphoblasts is recorded as “destroys the lymphoblasts formed”.
With `COc1cc(OC2OC(COC3OCC(O)C(O)C3O)C(O)C(O)C2O)c2c(=O)cc(-c3ccc(O)cc3)oc2c1` [Ex. 2, 5-O-β-D-primeverosyl-genkwanin], in the series on human blood cells, the “antibody production for the B lymphocytes” value is given as “decrease”, the “class II MHCs for dendritic cells” value is given as “decrease” and the “proliferation of the blood cells of the immune response” value was “do not induce proliferation”. In addition, in the series with IL-2, the IL-2 production result is “inhibition”.
On to `CCOc1ccc(C2CC(=O)c3c(cc(OC)cc3OC3OC(COC4OC(CO)C(O)C(O)C4O)C(O)C(O)C3O)O2)cc1` [Ex. 5, 2,3-dihydro-5-[O-6-(D-gluocpyranosyl)-β-D-glucopyranosyl]oxy-2-(4-ethoxyphenyl)-7-methoxy-4H-1-benzopyran-4-one], for which, in the series with human blood cells, the “antibody production for the B lymphocytes” value is on record as “decrease”, the “class II MHCs for dendritic cells” value is on record as “decrease” and the “proliferation of the blood cells of the immune response” value is recorded as “do not induce proliferation”. For the same molecule, the IL-2 production entry in the series with IL-2 is given as “inhibition”.
Take `CCOc1ccc(-c2cc(=O)c3c(OC4OC(COC5OC(CO)C(O)C(O)C5O)C(O)C(O)C4O)cc(OC)cc3o2)cc1` [Ex. 8, 5-[O-6-(D-glucopyranosyl)-β-D-glucopyranosyl]oxy-2-(4-ethoxyphenyl)-7-methoxy-4H-1-benzopyran-4-one]: in the series on leukoblasts, the “activity against certain acute cancers and leukemias (antiblastic effect) and chronic myeloid leukemia” value is “particularly active”. The harmful side effects entry in series [1] is “virtual absence”.
